Source: US6075057A, “Inhibition of carbohydrates metabolism by quinone compounds” (priority 1997, dated 2000)
Like-named read-outs stand apart in the source and are kept apart here.

Legend:
[1] = test system: β-mannosidase (EC 3.2.1.25); assay: Initial screening assay for enzyme inhibition, β-mannosidase; type: biochemical, snail; details: 20 μM inhibitor, 2% MeOH
Experimental: (§1) Optically pure enantiomers of avarol were synthetically prepared. A survey of potential inhibitory activity by avarol against twelve glycosidases was performed according to general procedures^15 (see experimental section). The enzymes tested and their biological sources are listed in Table 1 along with any pertinent references found for a given enzyme. In order to determine a working range for enzyme and substrate concentrations in which the rate of product formation was linear and steady-state kinetics were applicable, initial rate studies with varying substrate concentrations were performed in the absence of inhibitor. The Michaelis constants (Km 's) and Vmax values for these enzymes were determined from these plots using standard graphical analysis procedures as described in ref. 17 and are summarized in Table 2.
(§2) Enzymatic Assays. Piperazine-N,N'-bix-(2-ethanesulfonic acid)(PIPES) buffer, enzymes, and substrates were purchased from Sigma and used as received. Buffer solutions and enzymes (desiccated) were stored at 4° C. p-Nitrophenyl glycoside substrates were stored desiccated at -20° C. Enzyme inhibition assays and initial rate studies were carried out with the appropriate p-nitrophenyl glycoside substrates following the general procedure of Kajimoto et al., J. Am. Chem. Soc. 113:6187 (1991) with the exception that amyloglucosidase (EC 3.2,1.3, Asp. niger) was assayed following the method of Saul et al., Arch. Biochem. Biophys. 221:593 (1983). Assays were performed in a Perkin-Elmer Lambda Array 3840 Spectrophotometer using the built-in drive method (resolution=0.25, average=8) in a quartz cuvette (1 cm pathlength). Background absorption spectra were acquired using millipore filtered water as medium. Steady-state kinetics were maintained by adjusting the amount of enzyme used in each assay so that less than 10% of the substrate was converted to product for the duration of the reaction. Reactions were monitored at 400 nm (the absorbance of the p-nitrophenol product, ε=3204.5 M^-1 cm^-1) for a given amount of time and the initial rates were calculated and expressed as μmols p-nitrophenol formed per unit enzyme per second. Absportion readings for control reactions were corrected for the small baseline absorbance at time zero. Small discrepancies between time zero absorbance readings in a given inhibition assay and a time zero reading in a control assay were used to correct the overall absorbance change calculated in the inhibition assay. […]
(§3) Typical assay: A 1.5-mL quartz cuvette was charged with 940 μL of PIPES-NaOAc buffer solution (pH 6.56), 20 μL of inhibitor solution, and 20 μL of enzyme solution. […] The reaction was monitored at 400 nm for 1 min and the absorbance change was used to calculate the initial hydrolysis rate. […]

[2] = test system: amyloglucosidase (EC 3.2.1.3); assay: Initial screening assay for enzyme inhibition, amyloglucosidase; type: biochemical, Aspergillus niger; details: for % Enzyme activity relative to control: amyloglucosidase, 20 μM inhibitor, 2% MeOH
Experimental: as §1
(§4) Enzymatic Assays. Piperazine-N,N'-bix-(2-ethanesulfonic acid)(PIPES) buffer, enzymes, and substrates were purchased from Sigma and used as received. Buffer solutions and enzymes (desiccated) were stored at 4° C. p-Nitrophenyl glycoside substrates were stored desiccated at -20° C. Enzyme inhibition assays and initial rate studies were carried out with the appropriate p-nitrophenyl glycoside substrates following the general procedure of Kajimoto et al., J. Am. Chem. Soc. 113:6187 (1991) with the exception that amyloglucosidase (EC 3.2,1.3, Asp. niger) was assayed following the method of Saul et al., Arch. Biochem. Biophys. 221:593 (1983). Assays were performed in a Perkin-Elmer Lambda Array 3840 Spectrophotometer using the built-in drive method (resolution=0.25, average=8) in a quartz cuvette (1 cm pathlength). Background absorption spectra were acquired using millipore filtered water as medium. Steady-state kinetics were maintained by adjusting the amount of enzyme used in each assay so that less than 10% of the substrate was converted to product for the duration of the reaction. Reactions were monitored at 400 nm (the absorbance of the p-nitrophenol product, ε=3204.5 M^-1 cm^-1) for a given amount of time and the initial rates were calculated and expressed as μmols p-nitrophenol formed per unit enzyme per second. Absportion readings for control reactions were corrected for the small baseline absorbance at time zero. Small discrepancies between time zero absorbance readings in a given inhibition assay and a time zero reading in a control assay were used to correct the overall absorbance change calculated in the inhibition assay. Inhibitors were dissolved in uv-grade absolute methanol.
(§5) Typical assay: A 1.5-mL quartz cuvette was charged with 940 μL of PIPES-NaOAc buffer solution (pH 6.56), 20 μL of inhibitor solution, and 20 μL of enzyme solution. The result was mixed well and then equilibrated at 37° C. for two minutes. 20 μL of the appropriate p-nitrophenyl glycoside solution was then added to initiate the reaction with rapid mixing. The reaction was monitored at 400 nm for 1 min and the absorbance change was used to calculate the initial hydrolysis rate. Lineweaver-Burk plots were constructed by repeating this procedure with varying substrate and inhibitor concentrations.

[3] = molecular target: T1, β-galactosidase (EC 3.2.1.23) (Aspergillus niger, UniProt P29853); assay: Initial screening assay for enzyme inhibition, β-galactosidase (Asp. niger); type: biochemical; details: 20 μM inhibitor, 2% MeOH, read-out: % Enzyme activity relative to control
T1 construct: purchased Sigma; host or cells: Aspergillus niger
Experimental: as §1, §2, §3

[4] = test system: β-N-acetylglucosaminidase (EC 3.2.1.30); assay: Initial screening assay for enzyme inhibition, β-N-acetylglucosaminidase; type: biochemical, bovine kidney; details: 20 μM inhibitor, 2% MeOH
Experimental: as §1, §2, §3

[5] = test system: α-galactosidase (EC 3.2.1.22); assay: Initial screening assay for enzyme inhibition, α-galactosidase (E. coli); type: biochemical, Escherichia coli; details: 20 μM inhibitor, 2% MeOH
Experimental: as §1, §2, §3

[6] = molecular target: T2, α-L-fucosidase (EC 3.2.1.51) (Bos taurus, UniProt Q2KIM0); assay: Initial screening assay for enzyme inhibition, α-L-fucosidase; type: biochemical, bovine kidney; details: read-out: % Enzyme activity relative to control
T2 construct: purchased Sigma; host or cells: bovine kidney
T2 sequence (Q2KIM0 23-468): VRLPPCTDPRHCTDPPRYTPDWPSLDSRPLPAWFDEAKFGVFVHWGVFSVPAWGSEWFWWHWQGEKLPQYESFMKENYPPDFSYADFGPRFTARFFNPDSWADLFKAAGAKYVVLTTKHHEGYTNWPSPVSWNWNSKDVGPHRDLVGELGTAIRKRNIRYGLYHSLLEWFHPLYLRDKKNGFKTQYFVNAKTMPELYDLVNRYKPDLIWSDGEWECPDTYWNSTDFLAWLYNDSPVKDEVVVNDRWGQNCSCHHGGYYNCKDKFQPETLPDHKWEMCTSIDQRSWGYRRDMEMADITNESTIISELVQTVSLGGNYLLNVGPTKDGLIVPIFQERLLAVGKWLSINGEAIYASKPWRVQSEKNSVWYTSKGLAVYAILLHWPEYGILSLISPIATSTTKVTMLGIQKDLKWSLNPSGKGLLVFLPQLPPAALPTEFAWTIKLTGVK
Experimental: as §1, §2, §3

[7] = molecular target: T3, β-galactosidase (EC 3.2.1.23, grade XI) (Aspergillus oryzae, UniProt Q2UCU3); assay: Initial screening assay for enzyme inhibition, β-galactosidase (Asp. oryzae); type: biochemical; details: 20 μM inhibitor, 2% MeOH, read-out: % Enzyme activity relative to control
T3 construct: purchased Sigma; host or cells: Aspergillus oryzae
Experimental: as §1, §2, §3

[8] = molecular target: T4, α-galactosidase (EC 3.2.1.22) (Coffea arabica, UniProt Q42656); assay: Initial screening assay for enzyme inhibition, α-galactosidase (green coffee beans); type: biochemical; details: read-out: % Enzyme activity relative to control
T4 construct: purchased Sigma; host or cells: green coffee beans
Experimental: as §1, §2, §3

[9] = molecular target: T5, β-xylosidase (EC 3.2.1.37) (Aspergillus niger, UniProt O00089); assay: Initial screening assay for enzyme inhibition, β-xylosidase; type: biochemical; details: 20 μM inhibitor, 2% MeOH, read-out: % Enzyme activity relative to control
T5 construct: purchased Sigma; host or cells: Aspergillus niger
Experimental: as §1, §2, §3

HTLV-III/LAV = details: in vitro; cited from earlier work
Ames-microsomal assay = details: cited from earlier work
[10] = documented; cited from earlier work
[11] = test system: microtubule polymerization; details: in vitro and in vivo; cited from earlier work
[12] = test system: L5178Y mouse lymphoma cells; details: in vitro and in vivo; cited from earlier work
[13] = test system: benzo[a]pyrene monooxygenase; details: cited from earlier work
[14] = molecular target: T6, α-glucosidase (EC 3.2.1.20, type IV) (Saccharomyces cerevisiae, UniProt P53341); assay: Initial screening assay for enzyme inhibition, α-glucosidase; type: biochemical, brewer's yeast
T6 construct: purchased Sigma; host or cells: brewer's yeast
Experimental: as §1
Initial screening assays with the enantiomeric avarols indicated significant activity by these compounds against only two of the twelve enzymes studies. […] This can occur when the two species compete for the same site or nearby sites on the enzyme. The equilibria that describe competitive inhibition are shown below. [drawing 3]
as §4, §5

T1 sequence (P29853 20-1006): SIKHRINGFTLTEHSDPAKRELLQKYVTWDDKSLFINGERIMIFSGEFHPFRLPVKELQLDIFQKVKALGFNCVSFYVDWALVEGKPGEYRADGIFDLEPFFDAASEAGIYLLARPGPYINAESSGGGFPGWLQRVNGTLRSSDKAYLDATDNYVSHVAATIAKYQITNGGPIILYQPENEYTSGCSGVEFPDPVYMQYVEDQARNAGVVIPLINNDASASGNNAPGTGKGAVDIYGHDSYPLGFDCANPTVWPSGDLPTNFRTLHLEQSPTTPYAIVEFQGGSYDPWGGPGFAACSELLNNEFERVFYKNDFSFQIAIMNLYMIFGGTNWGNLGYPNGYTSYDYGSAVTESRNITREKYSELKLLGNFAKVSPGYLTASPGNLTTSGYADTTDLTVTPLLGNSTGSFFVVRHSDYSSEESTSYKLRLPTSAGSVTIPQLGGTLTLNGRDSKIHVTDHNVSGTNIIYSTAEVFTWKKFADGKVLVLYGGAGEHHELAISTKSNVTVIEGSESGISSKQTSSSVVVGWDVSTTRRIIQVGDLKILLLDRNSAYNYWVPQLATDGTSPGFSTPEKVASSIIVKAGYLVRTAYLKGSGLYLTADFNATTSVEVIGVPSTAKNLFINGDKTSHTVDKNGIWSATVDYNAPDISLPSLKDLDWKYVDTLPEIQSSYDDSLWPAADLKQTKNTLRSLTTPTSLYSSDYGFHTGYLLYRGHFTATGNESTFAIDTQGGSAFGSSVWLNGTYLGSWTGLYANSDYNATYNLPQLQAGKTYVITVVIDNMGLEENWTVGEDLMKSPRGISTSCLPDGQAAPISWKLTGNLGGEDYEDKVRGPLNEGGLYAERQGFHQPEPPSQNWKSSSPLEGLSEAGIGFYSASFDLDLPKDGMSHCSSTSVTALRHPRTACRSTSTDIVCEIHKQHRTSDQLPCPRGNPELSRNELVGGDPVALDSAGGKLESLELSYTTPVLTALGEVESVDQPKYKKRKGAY
T5 sequence (O00089 27-804): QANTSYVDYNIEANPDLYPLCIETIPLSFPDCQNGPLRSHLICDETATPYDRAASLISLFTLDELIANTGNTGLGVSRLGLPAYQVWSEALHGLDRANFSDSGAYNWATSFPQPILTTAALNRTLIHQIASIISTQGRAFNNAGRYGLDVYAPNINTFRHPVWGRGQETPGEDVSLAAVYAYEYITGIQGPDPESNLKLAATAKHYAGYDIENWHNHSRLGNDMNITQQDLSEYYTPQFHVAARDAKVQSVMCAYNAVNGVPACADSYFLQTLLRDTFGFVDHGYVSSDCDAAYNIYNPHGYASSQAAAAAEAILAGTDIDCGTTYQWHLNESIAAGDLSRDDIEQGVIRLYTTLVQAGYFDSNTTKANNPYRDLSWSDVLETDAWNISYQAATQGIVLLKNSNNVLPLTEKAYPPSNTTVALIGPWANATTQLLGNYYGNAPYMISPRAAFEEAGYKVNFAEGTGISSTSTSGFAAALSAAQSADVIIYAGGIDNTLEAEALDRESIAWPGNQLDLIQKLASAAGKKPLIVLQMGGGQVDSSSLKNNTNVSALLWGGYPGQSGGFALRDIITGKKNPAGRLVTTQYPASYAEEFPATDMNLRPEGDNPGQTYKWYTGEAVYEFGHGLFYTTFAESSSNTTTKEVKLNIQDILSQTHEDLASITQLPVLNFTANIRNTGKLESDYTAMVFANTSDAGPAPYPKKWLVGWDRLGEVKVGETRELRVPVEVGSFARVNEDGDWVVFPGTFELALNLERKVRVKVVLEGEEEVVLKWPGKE
T6 sequence (P53341 whole entry): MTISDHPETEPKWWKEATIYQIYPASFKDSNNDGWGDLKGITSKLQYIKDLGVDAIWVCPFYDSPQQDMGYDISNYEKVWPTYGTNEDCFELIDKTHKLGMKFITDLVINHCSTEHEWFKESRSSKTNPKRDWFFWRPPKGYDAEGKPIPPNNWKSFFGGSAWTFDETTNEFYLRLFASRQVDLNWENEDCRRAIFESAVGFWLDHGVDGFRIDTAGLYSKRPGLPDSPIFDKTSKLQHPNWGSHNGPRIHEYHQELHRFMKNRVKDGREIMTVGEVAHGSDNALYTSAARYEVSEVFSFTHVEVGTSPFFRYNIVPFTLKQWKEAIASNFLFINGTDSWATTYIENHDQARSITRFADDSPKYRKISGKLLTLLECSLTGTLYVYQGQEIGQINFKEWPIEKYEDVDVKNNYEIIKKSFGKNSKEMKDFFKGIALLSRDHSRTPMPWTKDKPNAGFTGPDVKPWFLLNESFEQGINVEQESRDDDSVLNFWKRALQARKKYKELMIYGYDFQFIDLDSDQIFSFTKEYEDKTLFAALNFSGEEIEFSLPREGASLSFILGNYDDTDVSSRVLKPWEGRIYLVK
T4 sequence (Q42656 16-378): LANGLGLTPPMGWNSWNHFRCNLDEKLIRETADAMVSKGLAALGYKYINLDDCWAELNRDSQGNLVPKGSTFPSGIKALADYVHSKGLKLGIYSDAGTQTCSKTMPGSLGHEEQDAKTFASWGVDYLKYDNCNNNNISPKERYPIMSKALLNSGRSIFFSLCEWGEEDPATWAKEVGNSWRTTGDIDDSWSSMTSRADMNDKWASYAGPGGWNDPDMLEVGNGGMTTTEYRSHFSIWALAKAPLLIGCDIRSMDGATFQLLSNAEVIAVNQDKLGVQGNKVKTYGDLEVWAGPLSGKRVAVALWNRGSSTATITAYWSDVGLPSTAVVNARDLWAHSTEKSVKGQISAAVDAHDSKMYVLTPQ
T3 sequence (Q2UCU3 19-1005): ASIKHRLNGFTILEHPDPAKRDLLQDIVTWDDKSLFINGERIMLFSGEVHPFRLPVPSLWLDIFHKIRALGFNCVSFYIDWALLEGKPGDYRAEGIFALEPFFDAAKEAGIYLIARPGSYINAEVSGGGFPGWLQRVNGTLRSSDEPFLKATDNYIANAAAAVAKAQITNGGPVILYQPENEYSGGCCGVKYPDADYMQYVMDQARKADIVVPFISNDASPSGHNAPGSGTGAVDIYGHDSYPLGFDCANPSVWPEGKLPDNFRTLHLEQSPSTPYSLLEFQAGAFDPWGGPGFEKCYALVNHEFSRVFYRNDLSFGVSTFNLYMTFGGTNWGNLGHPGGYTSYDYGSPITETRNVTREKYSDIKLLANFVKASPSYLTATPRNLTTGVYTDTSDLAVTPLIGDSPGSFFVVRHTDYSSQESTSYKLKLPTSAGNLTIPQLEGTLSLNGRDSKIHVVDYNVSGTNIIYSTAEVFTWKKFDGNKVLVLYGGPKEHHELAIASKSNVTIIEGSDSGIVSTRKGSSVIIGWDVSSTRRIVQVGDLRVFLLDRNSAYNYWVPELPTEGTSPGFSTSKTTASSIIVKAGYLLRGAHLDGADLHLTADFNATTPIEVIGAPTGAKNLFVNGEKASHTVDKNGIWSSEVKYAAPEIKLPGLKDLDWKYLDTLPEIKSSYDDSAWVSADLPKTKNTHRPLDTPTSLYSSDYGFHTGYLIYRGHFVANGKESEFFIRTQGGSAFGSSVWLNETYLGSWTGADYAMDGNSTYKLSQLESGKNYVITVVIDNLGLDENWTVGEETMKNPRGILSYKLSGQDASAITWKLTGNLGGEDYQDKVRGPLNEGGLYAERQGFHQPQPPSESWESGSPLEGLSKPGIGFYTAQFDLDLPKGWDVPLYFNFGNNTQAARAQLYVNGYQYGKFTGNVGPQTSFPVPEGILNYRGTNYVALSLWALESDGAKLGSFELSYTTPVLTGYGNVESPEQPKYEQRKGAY

Compound	% Enzyme activity relative to control [1] [%]	% Enzyme activity relative to control [2] [%]	remaining activity at 20 µM [3] [%]	% Enzyme activity relative to control [4] [%]	% Enzyme activity relative to control [5] [%]	remaining activity at 20 µM [6] [%]	remaining activity at 20 µM [7] [%]	remaining activity at 20 µM [8] [%]	remaining activity at 20 µM [9] [%]	inhibition of replication of HTLV-III/LAV (HTLV-III/LAV)	mutagenicity (Ames-microsomal assay)	toxicity [10]	inhibition of microtubule polymerization [11]	cytotoxicity against L5178Y mouse lymphoma cells [12]	antimutagenic activity through inhibition of benzo[a]pyrene monooxygenase [13]	inhibition of amyloglucosidase (in words) ([2]; Table 3)	remaining activity at 20 µM ([6]; α-L-fucosidase, 20 μM inhibitor, 2% MeOH) [%]	remaining activity at 20 µM ([8]; α-galactosidase (green coffee beans), 20 μM inhibitor, 2% MeOH) [%]	inhibition at 20 µM ([14]; 20 μM) [%]	remaining activity at 20 µM ([14]; α-glucosidase, 20 μM inhibitor, 2% MeOH, read-out: % Enzyme activity relative to control) [%]
CC1=CCC[C@H]2[C@](C)(CC/C(C)=C/C[n+]3cn(C)c4ncnc(N)c43)[C@@H](C)CC[C@]12C [C-4-10]	109	94	95	91	102	100	108	96	102											
CC1=CCC[C@H]2[C@](C)(Cc3cc(O)ccc3O)[C@@H](C)CC[C@]12C [avarol]										inhibition of replication	neither direct nor indirect mutagens	low toxicity	inhibition of microtubule polymerization	highly selective cytotoxicity	antimutagenic activity through the inhibition of benzo[a]pyrene monooxygenase					
CC1=CCC[C@H]2[C@](C)(CC3=CC(=O)C=CC3=O)[C@@H](C)CC[C@]12C [avarone, Avarone]											neither direct nor indirect mutagens	low toxicity			antimutagenic activity through the inhibition of benzo[a]pyrene monooxygenase					
C=C1CCC[C@H]2[C@](C)(CC3=C(O)C(=O)C=C(OC)C3=O)[C@@H](C)CC[C@]12C [ilimaquinone, reference compound]	108	57	111	96	101		98		105							strong inhibitor of amyloglucosidase	109	97	20	82
